Common to all, as to assay type: functional, cell-based
Assay [1] deals with HepG2. Kind of assay: Cytotoxicity against human HepG2 cells.
Assay [2] relates to MDA-MB-231. Kind of assay: Cytotoxicity against human MDA-MB-231 cells.
Assay [3] concerns A549. Kind of assay: Cytotoxicity against human A549 cells.

The IC50 is the concentration that gives 50% inhibition. For `C[C@@H]1CC[C@@]2(OC1)O[C@H]1C[C@H]3[C@@H]4CC=C5C[C@@H](O)CC[C@]5(C)[C@H]4CC[C@]3(C)[C@H]1[C@@H]2C` [DISOGENIN], the half-inhibitory concentration (IC50) in assay [1] and in assay [2] was greater than 50 µM throughout.

As for `CC[N+]1(CCCC(=O)O[C@H]2CC[C@@]3(C)[C@H](CC[C@@H]4[C@@H]3CC[C@]3(C)[C@@H]5[C@H](C[C@@H]43)O[C@]3(CCC(C)CO3)[C@H]5C)C2)CCc2ccccc2C1` (stereo partly drawn), the IC50 worked out at 9.52 µM in assay [1], 10.8 µM in assay [3] and 13.8 µM in assay [2].

For `CC1CC[C@@]2(OC1)O[C@H]1C[C@H]3[C@@H]4CC[C@@H]5C[C@@H](OC(=O)CCCCC[P+](c6ccccc6)(c6ccccc6)c6ccccc6)CC[C@]5(C)[C@H]4CC[C@]3(C)[C@H]1[C@@H]2C` (stereo partly drawn), the IC50 in assay [1] amounted to 4.18 µM; in assay [3], 1.3 µM; in assay [2], 5.01 µM.

Regarding `CC[N+]1(CCCC(=O)O[C@H]2CC[C@@]3(C)[C@H](CC[C@@H]4[C@@H]3CC[C@]3(C)[C@@H]5[C@H](C[C@@H]43)O[C@]3(CCC(C)CO3)[C@H]5C)C2)CCCCC1` (stereo partly drawn), the values for the IC50 in assay [1], in assay [3] and in assay [2] were 19.9 µM, 14.6 µM and 37.8 µM, respectively.

With `CC[N+]1(CCCC(=O)O[C@H]2CC[C@@]3(C)C(=CC[C@H]4[C@@H]5C[C@@H]6O[C@]7(CCC(C)CO7)[C@@H](C)[C@@H]6[C@@]5(C)CC[C@@H]43)C2)CCCC1` (stereo partly drawn), the results for the IC50 in assay [1], in assay [3] and in assay [2] were 16.8 µM, 16.2 µM and 26.4 µM, respectively.

Consider `CC(=O)O[C@H]1CC[C@@]2(C)C(=CC[C@H]3[C@@H]4C[C@@H]5O[C@H](CC[C@@H](C)COC(=O)CC[P+](c6ccccc6)(c6ccccc6)c6ccccc6)[C@@H](C)[C@@H]5[C@@]4(C)CC[C@@H]32)C1`, for which the IC50 in assay [1] was 26.2 µM; in assay [3] it was 5.99 µM; in assay [2], 38.5 µM.

Regarding `CC1CC[C@@]2(OC1)O[C@H]1C[C@H]3[C@@H]4CC=C5C[C@@H](OC(=O)CCCCC[P+](c6ccccc6)(c6ccccc6)c6ccccc6)CC[C@]5(C)[C@H]4CC[C@]3(C)[C@H]1[C@@H]2C` (stereo partly drawn), the results for the IC50 in assay [1], in assay [3] and in assay [2] were 4.19 µM, 1.24 µM and 5.49 µM, respectively.

In the case of `CC1CC[C@@]2(OC1)O[C@H]1C[C@H]3[C@@H]4CC=C5C[C@@H](OC(=O)CC[P+](c6ccccc6)(c6ccccc6)c6ccccc6)CC[C@]5(C)[C@H]4CC[C@]3(C)[C@H]1[C@@H]2C` (stereo partly drawn), the IC50 was determined as 8.28 µM in assay [1], 1.19 µM in assay [3] and 7.92 µM in assay [2].

For `CC(=O)O[C@H]1CC[C@@]2(C)C(=CC[C@H]3[C@@H]4C[C@@H]5O[C@H](CC[C@@H](C)COC(=O)CCCCC[P+](c6ccccc6)(c6ccccc6)c6ccccc6)[C@@H](C)[C@@H]5[C@@]4(C)CC[C@@H]32)C1`, the figures for the IC50 in assay [1], in assay [3] and in assay [2] were 30.1 µM, 5.63 µM and 36.6 µM, respectively.

Turning to `C[C@@H]1CC[C@@]2(OC1)O[C@H]1C[C@H]3[C@@H]4CC[C@@H]5C[C@@H](O)CC[C@]5(C)[C@H]4CC[C@]3(C)[C@H]1[C@@H]2C`, the IC50 in assay [1], in assay [3] and in assay [2] was greater than 50 µM each time.

Turning to `CC[N+]1(CCCC(=O)OC[C@H](C)CC[C@H]2O[C@H]3C[C@H]4[C@@H]5CC=C6C[C@@H](OC(C)=O)CC[C@]6(C)[C@H]5CC[C@]4(C)[C@H]3[C@@H]2C)CCOCC1`, the IC50 is greater than 50 µM in assay [1], 17.4 µM in assay [3] and greater than 50 µM in assay [2].

As to `CC[N+]1(CCCC(=O)O[C@H]2CC[C@@]3(C)C(=CC[C@H]4[C@@H]5C[C@@H]6O[C@]7(CCC(C)CO7)[C@@H](C)[C@@H]6[C@@]5(C)CC[C@@H]43)C2)CCCCC1` (stereo partly drawn), the values for the IC50 in assay [1], in assay [3] and in assay [2] were 19.2 µM, 15.4 µM and 40.5 µM, respectively.

On to `CC[N+]1(CCCC(=O)O[C@H]2CC[C@@]3(C)[C@H](CC[C@@H]4[C@@H]3CC[C@]3(C)[C@@H]5[C@H](C[C@@H]43)O[C@]3(CCC(C)CO3)[C@H]5C)C2)CCCC1` (stereo partly drawn), for which the IC50 in assay [1] is 9.08 µM; in assay [3], 15.4 µM; in assay [2], 16.2 µM.

With `CC[N+]1(CCCC(=O)O[C@H]2CC[C@@]3(C)C(=CC[C@H]4[C@@H]5C[C@@H]6O[C@]7(CCC(C)CO7)[C@@H](C)[C@@H]6[C@@]5(C)CC[C@@H]43)C2)CCOCC1` (stereo partly drawn), the IC50 in assay [1] stood at 27.9 µM; in assay [3], 29.1 µM; in assay [2] it was 41.6 µM.

Take `CC(=O)O[C@H]1CC[C@@]2(C)C(=CC[C@H]3[C@@H]4C[C@@H]5O[C@H](CC[C@@H](C)COC(=O)C[P+](c6ccccc6)(c6ccccc6)c6ccccc6)[C@@H](C)[C@@H]5[C@@]4(C)CC[C@@H]32)C1`: the results for the IC50 in assay [1], in assay [3] and in assay [2] were 25.4 µM, 10.8 µM and 32 µM, respectively.

Regarding `CC1CC[C@@]2(OC1)O[C@H]1C[C@H]3[C@@H]4CC=C5C[C@@H](OC(=O)C[P+](c6ccccc6)(c6ccccc6)c6ccccc6)CC[C@]5(C)[C@H]4CC[C@]3(C)[C@H]1[C@@H]2C` (stereo partly drawn), the results for the IC50 in assay [1], in assay [3] and in assay [2] were 22.2 µM, 15.6 µM and 33.3 µM, respectively.

Take `CC(=O)O[C@H]1CC[C@@]2(C)C(=CC[C@H]3[C@@H]4C[C@@H]5O[C@H](CC[C@@H](C)COC(=O)CCC[P+](c6ccccc6)(c6ccccc6)c6ccccc6)[C@@H](C)[C@@H]5[C@@]4(C)CC[C@@H]32)C1`: the values for the IC50 in assay [1], in assay [3] and in assay [2] were 23.7 µM, 6.06 µM and 31.5 µM, respectively.

For the compound `CC[N+]1(CCCC(=O)O[C@H]2CC[C@@]3(C)C(=CC[C@H]4[C@@H]5C[C@@H]6O[C@]7(CCC(C)CO7)[C@@H](C)[C@@H]6[C@@]5(C)CC[C@@H]43)C2)CCNCC1` (stereo partly drawn), the IC50 in assay [1] came to 33.7 µM; in assay [3], 18.6 µM; in assay [2], 49.2 µM.

As to `CC1CC[C@@]2(OC1)O[C@H]1C[C@H]3[C@@H]4CC[C@@H]5C[C@@H](OC(=O)CC[P+](c6ccccc6)(c6ccccc6)c6ccccc6)CC[C@]5(C)[C@H]4CC[C@]3(C)[C@H]1[C@@H]2C` (stereo partly drawn), the IC50 in assay [1] came out at 3.34 µM; in assay [3], 1.09 µM; in assay [2], 4.26 µM.

On to `CC[N+]1(CCCC(=O)OC[C@H](C)CC[C@H]2O[C@H]3C[C@H]4[C@@H]5CC=C6C[C@@H](OC(C)=O)CC[C@]6(C)[C@H]5CC[C@]4(C)[C@H]3[C@@H]2C)CCNCC1`, for which the results for the IC50 in assay [1], in assay [3] and in assay [2] were 34.6 µM, 13.7 µM and 36.4 µM, respectively.

Consider `CC[N+]1(CCCC(=O)O[C@H]2CC[C@@]3(C)[C@H](CC[C@@H]4[C@@H]3CC[C@]3(C)[C@@H]5[C@H](C[C@@H]43)O[C@]3(CCC(C)CO3)[C@H]5C)C2)CCNCC1` (stereo partly drawn), for which the values for the IC50 in assay [1], in assay [3] and in assay [2] were greater than 50 µM, 26.1 µM and greater than 50 µM, respectively.

For the compound `CC[N+]1(CCCC(=O)O[C@H]2CC[C@@]3(C)C(=CC[C@H]4[C@@H]5C[C@@H]6O[C@]7(CCC(C)CO7)[C@@H](C)[C@@H]6[C@@]5(C)CC[C@@H]43)C2)CCc2ccccc2C1` (stereo partly drawn), the IC50 in assay [1] stood at 18.8 µM; in assay [3] it was 8.43 µM; in assay [2], 20.6 µM.

With `CC[N+]1(CCCC(=O)O[C@H]2CC[C@@]3(C)[C@H](CC[C@@H]4[C@@H]3CC[C@]3(C)[C@@H]5[C@H](C[C@@H]43)O[C@]3(CCC(C)CO3)[C@H]5C)C2)CCOCC1` (stereo partly drawn), the IC50 in assay [1] came out at 22.6 µM; in assay [3], 18.7 µM; in assay [2], 34.8 µM.

For `CC[N+]1(CCCC(=O)OC[C@H](C)CC[C@H]2O[C@H]3C[C@H]4[C@@H]5CC=C6C[C@@H](OC(C)=O)CC[C@]6(C)[C@H]5CC[C@]4(C)[C@H]3[C@@H]2C)CCCCC1`, the IC50 is greater than 50 µM in assay [1], 18 µM in assay [3] and greater than 50 µM in assay [2].

Turning to `CC[N+]1(CCCC(=O)OC[C@H](C)CC[C@H]2O[C@H]3C[C@H]4[C@@H]5CC=C6C[C@@H](OC(C)=O)CC[C@]6(C)[C@H]5CC[C@]4(C)[C@H]3[C@@H]2C)CCc2ccccc2C1` (stereo partly drawn), the figures for the IC50 in assay [1], in assay [3] and in assay [2] were 33.5 µM, 14.4 µM and 34.8 µM, respectively.

As for `CC[N+]1(CCCC(=O)OC[C@H](C)CC[C@H]2O[C@H]3C[C@H]4[C@@H]5CC=C6C[C@@H](OC(C)=O)CC[C@]6(C)[C@H]5CC[C@]4(C)[C@H]3[C@@H]2C)CCCC1`, the IC50 was greater than 50 µM in assay [1], 20.7 µM in assay [3] and greater than 50 µM in assay [2].

Consider `CC1CC[C@@]2(OC1)O[C@H]1C[C@H]3[C@@H]4CC[C@@H]5C[C@@H](OC(=O)CCC[P+](c6ccccc6)(c6ccccc6)c6ccccc6)CC[C@]5(C)[C@H]4CC[C@]3(C)[C@H]1[C@@H]2C` (stereo partly drawn), for which the results for the half-maximal inhibitory concentration (IC50) in assay [1], in assay [3] and in assay [2] were 3.44 µM, 1 µM and 3.62 µM, respectively.

With `CC1CC[C@@]2(OC1)O[C@H]1C[C@H]3[C@@H]4CC[C@@H]5C[C@@H](OC(=O)C[P+](c6ccccc6)(c6ccccc6)c6ccccc6)CC[C@]5(C)[C@H]4CC[C@]3(C)[C@H]1[C@@H]2C` (stereo partly drawn), the IC50 in assay [1] came to 22.6 µM; in assay [3], 5.23 µM; in assay [2] it was 42.9 µM.

The record behind these values is ChEMBL document CHEMBL6114954, “Design, synthesis and cytotoxic activity of novel lipophilic cationic derivatives of diosgenin and sarsasapogenin” (Bioorg Med Chem Lett, 2025).
